What was measured:
[1] = Liquid, Vibrating tube method
[2] = xn = mol fraction of the nth substance listed; conditions: Liquid; for viscosity: Electromagnetically Driven Piston; for mass density: Vibrating tube method

CCCCCCCCCCCCCC [tetradecane]
[1]
Conditions | mass density [kg/m3]
294.4 K, 5030 kPa | 764
294.6 K, 8000 kPa | 766
294.6 K, 9490 kPa | 767
294.8 K, 2050 kPa | 760
294.8 K, 3540 kPa | 762
294.8 K, 6500 kPa | 765
324 K, 3540 kPa | 743
324 K, 5050 kPa | 744
324 K, 6560 kPa | 746
324.1 K, 2070 kPa | 742
324.1 K, 8070 kPa | 747
324.1 K, 9540 kPa | 748
373.3 K, 5060 kPa | 711
373.3 K, 6560 kPa | 712
373.5 K, 2100 kPa | 708
373.5 K, 3560 kPa | 709
373.5 K, 8030 kPa | 713
373.5 K, 9500 kPa | 715
447.5 K, 4920 kPa | 660
447.5 K, 6450 kPa | 662
447.6 K, 1990 kPa | 655
447.6 K, 3590 kPa | 658
447.6 K, 7960 kPa | 665
447.6 K, 9470 kPa | 667

CCCCCCCCCCCCCC [tetradecane] + C
[2]
Conditions | mass density [kg/m3] | viscosity [mPa·s]
294.4 K, x2 = 0.232 | 740 | 1.48
294.6 K, x2 = 0.331 | 728 | 1.16
294.6 K, x2 = 0.364 | 723 | 1.05
294.8 K, x2 = 0.112 | 752 | 1.74
294.8 K, x2 = 0.176 | 746 | 1.64
294.8 K, x2 = 0.282 | 734 | 1.33
324 K, x2 = 0.159 | 726 | 0.97
324 K, x2 = 0.213 | 722 | 0.91
324 K, x2 = 0.264 | 716 | 0.82
324.1 K, x2 = 0.1 | 732 | 1.07
324.1 K, x2 = 0.306 | 711 | 0.75
324.1 K, x2 = 0.342 | 706 | 0.7
373.3 K, x2 = 0.193 | 689 | 0.51
373.3 K, x2 = 0.239 | 683 | 0.49
373.5 K, x2 = 0.09 | 699 | 0.57
373.5 K, x2 = 0.143 | 694 | 0.54
373.5 K, x2 = 0.279 | 678 | 0.46
373.5 K, x2 = 0.317 | 674 | 0.44
447.5 K, x2 = 0.176 | 636 | 0.28
447.5 K, x2 = 0.223 | 631 | 0.27
447.6 K, x2 = 0.078 | 646 | 0.31
447.6 K, x2 = 0.137 | 640 | 0.29
447.6 K, x2 = 0.266 | 625 | 0.25
447.6 K, x2 = 0.303 | 620 | 0.24

Source: the NIST ThermoML archive (doi:10.1016/j.fluid.2012.01.023)
